In patent US6627769B2, “RGD-analog non-peptidic molecules having anti-adhesive, anti-migration and anti-proliferative effects” (Provincia Italiana Della Congregzaione dei Figli …, priority 2001, dated 2003):
Where two headings read alike, the source gives them in different places.

How the values were obtained:
[1] = system: RASMC proliferation stimulated with PDGF-BB
Procedure: (§1) For this test rat vascular smooth muscle cells (RASMC) primary cultures, obtained from adult male Wistar Rats, were used according to well known procedures (Facchiano et al., 2000, J. Cell Sci., 113(16), 2855-63).
(§2) Proliferation assay was performed, following standard procedures (Facchiano, et al., 2000, Cell Sci., 113(16), 2855-63), on 6-well plates (1×10^5 cells/plate) allowed to grow for 24 hours in DMEM supplemented with 10% Fetal Calf Serum (FCS) at 37° C. in 5% CO2. Medium was replaced with starvation medium containing either DMEM-0.1% BSA for 24 hours. Subsequently the starvation medium was replaced with fresh medium containing either 0.1% BSA alone or 0.1% BSA with PDGF-BB in the presence or absence of the RGD-analog. Every assay was carried out at different time intervals and cells were harvested and counted with hemacytometer.

[2] = system: RASMC migration toward PDGF-BB; test: Migration assay in modified Boyden chambers toward PDGF-BB; type: cell-based, rat; settings: FIG. 2; PDGF-BB 10 ng/ml as chemoattractant
Procedure: Rat vascular smooth muscle cells (RASMC) were placed in the upper chamber of the Boyden apparatus. […] Cell migrated on the bottom face of the filters were counted at 400× magnification. Fifteen fields were counted for each filter and the average number of cells/field was calculated. Experiments were performed at least 4 times in duplicate.

[3] = system: RASMC proliferation stimulated with PDGF-BB; test: Proliferation assay (PDGF-BB stimulated RASMC, cell counting); settings: FIG. 3
Procedure: as §1, §2

NC(N)=NCCC[C@H](N)C(=O)NCC(=O)N[C@@H](CC(=O)O)C(=O)N[C@@H](CO)C(=O)O [RGDS]
toxic effects on cells [1]: do not show toxic effects

N=C(N)NCCC[C@H](NC(=O)[C@@H](Cc1ccccc1)NC(=O)[C@H](CCCNC(=N)N)NC(=O)CC(=O)N[C@@H](CC(=O)O)C(N)=O)C(N)=O [non-peptidic RGD-analog, H2N—RfRmD—NH2]
inhibition of RASMC migration toward PDGF-BB gradient [2]: in a dose-dependent manner
anti-proliferative effect (inhibition of RASMC proliferation) ([3]; 100 ng/ml, stimulated for 48 hours with PDGF-BB (10 ng/ml)): marked anti-proliferative effect
toxic effects on cells ([3]; added to cells in the absence of PDGF-BB): do not show toxic effects
